Assay results reported in publication PMC10213791 (Acta Pharmaceutica Sinica. B, 2022).

Columns and labels:
peroxiredoxin 3 (PRDX3) = molecular target: T1, peroxiredoxin 3 (PRDX3) (Homo sapiens, UniProt P30048); test: SPR; type: binding
T1 sequence (P30048 62-256): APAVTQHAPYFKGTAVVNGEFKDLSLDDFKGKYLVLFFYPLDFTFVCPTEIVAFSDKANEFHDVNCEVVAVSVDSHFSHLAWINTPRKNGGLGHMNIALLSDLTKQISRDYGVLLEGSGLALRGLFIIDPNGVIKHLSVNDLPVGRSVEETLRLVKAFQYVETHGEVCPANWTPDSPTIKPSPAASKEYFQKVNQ

[1] = molecular target: T2, eukaryotic translation elongation factor 1 alpha 1 (eEF1A1) (Homo sapiens, UniProt P68104); test: SPR; type: binding
T2 sequence (P68104 2-462): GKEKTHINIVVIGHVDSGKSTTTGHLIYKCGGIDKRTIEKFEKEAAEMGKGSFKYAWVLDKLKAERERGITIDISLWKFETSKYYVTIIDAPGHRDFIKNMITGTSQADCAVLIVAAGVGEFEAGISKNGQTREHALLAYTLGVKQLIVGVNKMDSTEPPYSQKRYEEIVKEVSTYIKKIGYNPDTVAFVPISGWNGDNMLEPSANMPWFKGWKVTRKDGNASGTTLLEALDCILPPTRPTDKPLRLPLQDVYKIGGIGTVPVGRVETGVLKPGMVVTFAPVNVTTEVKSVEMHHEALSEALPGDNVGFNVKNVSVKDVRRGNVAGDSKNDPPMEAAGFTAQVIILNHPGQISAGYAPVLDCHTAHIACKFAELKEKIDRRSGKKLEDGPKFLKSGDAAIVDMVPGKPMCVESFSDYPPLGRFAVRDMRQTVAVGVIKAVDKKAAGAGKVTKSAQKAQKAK

[2] = molecular target: T3, vacuolar protein sorting 4 homolog B (VPS4B) (Homo sapiens, UniProt O75351); test: SPR; type: binding
T3 sequence (O75351 1-444): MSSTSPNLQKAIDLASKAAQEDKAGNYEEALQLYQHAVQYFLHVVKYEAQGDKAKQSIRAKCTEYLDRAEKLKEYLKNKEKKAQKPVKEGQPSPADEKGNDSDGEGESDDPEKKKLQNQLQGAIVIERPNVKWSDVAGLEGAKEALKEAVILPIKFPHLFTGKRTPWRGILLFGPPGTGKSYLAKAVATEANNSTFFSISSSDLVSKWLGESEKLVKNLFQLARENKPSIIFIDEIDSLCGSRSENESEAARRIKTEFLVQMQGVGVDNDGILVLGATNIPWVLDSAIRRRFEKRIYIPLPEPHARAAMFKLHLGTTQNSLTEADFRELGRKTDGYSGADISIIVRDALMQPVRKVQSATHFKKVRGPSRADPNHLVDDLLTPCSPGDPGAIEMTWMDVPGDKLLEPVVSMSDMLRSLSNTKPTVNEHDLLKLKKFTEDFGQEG

EIF2AK2 = EIF2AK2 (Homo sapiens, UniProt P19525); test: biochemical
Chain of EIF2AK2 (P19525 2-551): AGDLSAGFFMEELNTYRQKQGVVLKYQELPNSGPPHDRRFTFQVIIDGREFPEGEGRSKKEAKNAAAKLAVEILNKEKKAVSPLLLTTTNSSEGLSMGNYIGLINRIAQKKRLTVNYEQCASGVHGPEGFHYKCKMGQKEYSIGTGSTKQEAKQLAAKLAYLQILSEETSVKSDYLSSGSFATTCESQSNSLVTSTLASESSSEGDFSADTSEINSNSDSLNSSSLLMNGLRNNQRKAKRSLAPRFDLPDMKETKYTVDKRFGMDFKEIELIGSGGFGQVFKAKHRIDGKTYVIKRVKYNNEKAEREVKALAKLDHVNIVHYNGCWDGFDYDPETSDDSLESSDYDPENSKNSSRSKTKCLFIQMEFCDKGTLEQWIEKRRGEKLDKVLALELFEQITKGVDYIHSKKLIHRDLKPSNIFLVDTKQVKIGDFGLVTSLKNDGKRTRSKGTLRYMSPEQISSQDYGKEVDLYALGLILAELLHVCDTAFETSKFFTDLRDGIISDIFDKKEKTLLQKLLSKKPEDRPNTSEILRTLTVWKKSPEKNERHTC

Compound	Kd (peroxiredoxin 3 (PRDX3))	Kd [1]	Kd [2]	IC50 (EIF2AK2)
COc1ccc2cc3[n+](cc2c1OC)CCc1cc2c(cc1-3)OCO2 [BBR, berberine]	23.7 µM	13.4 µM	16.8 µM	
O=C1Nc2ccc3ncsc3c2/C1=C/c1c[nH]cn1 [C16]				1010 nM
